Reference: paper PMC8871760, “Assessment of Five Pesticides as Endocrine-Disrupting Chemicals: Effects on Estrogen Receptors and Aromatase” (International Journal of Environmental Research and Public …, 2022)

Biological target: T1, recombinant form of human aromatase (Homo sapiens, UniProt P11511)
T1 construct: gene CYP19A1; purified recombinant; assayed with equimolar human CPR; with NADPH--cytochrome P450 reductase
T1 sequence (P11511 1-503): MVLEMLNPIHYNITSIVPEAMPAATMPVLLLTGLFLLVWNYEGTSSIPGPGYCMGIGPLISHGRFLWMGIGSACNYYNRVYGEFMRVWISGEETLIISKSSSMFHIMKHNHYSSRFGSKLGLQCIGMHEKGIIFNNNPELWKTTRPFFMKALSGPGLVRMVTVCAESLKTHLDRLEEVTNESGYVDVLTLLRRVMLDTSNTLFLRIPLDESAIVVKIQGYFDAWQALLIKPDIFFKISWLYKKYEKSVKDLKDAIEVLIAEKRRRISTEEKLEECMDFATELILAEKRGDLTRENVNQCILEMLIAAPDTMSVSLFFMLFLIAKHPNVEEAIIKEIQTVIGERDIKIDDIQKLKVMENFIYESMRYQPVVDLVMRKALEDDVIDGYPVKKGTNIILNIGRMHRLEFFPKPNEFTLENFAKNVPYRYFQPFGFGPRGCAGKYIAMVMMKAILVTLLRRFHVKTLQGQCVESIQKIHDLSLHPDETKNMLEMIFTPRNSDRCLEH
T1 sequence (P16435 2-677 partner): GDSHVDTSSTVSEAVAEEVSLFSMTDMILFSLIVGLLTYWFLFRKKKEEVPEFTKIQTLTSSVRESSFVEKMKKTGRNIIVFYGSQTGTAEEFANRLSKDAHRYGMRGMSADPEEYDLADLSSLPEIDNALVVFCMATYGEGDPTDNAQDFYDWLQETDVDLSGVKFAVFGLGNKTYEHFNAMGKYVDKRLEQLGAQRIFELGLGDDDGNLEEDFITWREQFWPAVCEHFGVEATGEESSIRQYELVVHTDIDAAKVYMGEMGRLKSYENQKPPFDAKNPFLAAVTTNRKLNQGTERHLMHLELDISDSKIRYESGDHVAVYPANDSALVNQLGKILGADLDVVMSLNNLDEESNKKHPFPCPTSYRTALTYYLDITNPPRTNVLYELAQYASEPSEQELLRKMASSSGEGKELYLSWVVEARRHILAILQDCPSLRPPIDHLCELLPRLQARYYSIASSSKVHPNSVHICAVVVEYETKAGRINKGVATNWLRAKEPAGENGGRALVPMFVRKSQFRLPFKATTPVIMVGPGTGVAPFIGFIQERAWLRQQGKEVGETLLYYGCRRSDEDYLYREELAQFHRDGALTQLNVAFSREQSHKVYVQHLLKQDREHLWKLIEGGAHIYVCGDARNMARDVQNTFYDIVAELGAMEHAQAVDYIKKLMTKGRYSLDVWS
Assay: estrone ELISA of aromatase reaction
Format: biochemical
Settings: read-out: Relative Activity (% of C+) / 5 × 10^-6 M
Description: estrone ELISA of aromatase reaction on recombinant form of human aromatase

Which activity at 5 µM does the source give for C/C(=N\C#N)N(C)Cc1ccc(Cl)nc1 [Acetamiprid] here?
Its activity at 5 µM is 87.5 ± 17.6%.

With CN/C(=N\[N+](=O)[O-])NCc1cnc(Cl)s1 [Clothianidin] as the compound, how does the activity at 5 µM read?
Its activity at 5 µM is 97.9 ± 5.2%.

For CNC(=O)Oc1cc(C)c(SC)c(C)c1 [Methiocarb], which activity at 5 µM is on record?
Its activity at 5 µM is 90.9 ± 5.4%.

With CC(C)Oc1cc(-n2nc(C(C)(C)C)oc2=O)c(Cl)cc1Cl [Oxadiazon] as the compound, how does the activity at 5 µM read?
Its activity at 5 µM is 101 ± 16.7%.

CN1COCN(Cc2cnc(Cl)s2)C1=N[N+](=O)[O-] [Thiamethoxam] was tested. Which activity at 5 µM did it give?
The activity at 5 µM was 95.6 ± 17.1%.
